PubChem BioAssay AID1259407 (Chemical Carcinogenesis Research Information System (CCRIS), 2018)
Active and inactive are the calls of the source. The rule behind the calls is not given here.

Tested on: CCRIS mutagenicity, Ames/micronucleus/aberration tests
Test: CCRIS mutagenicity studies
[1] = Test System: AMES SALMONELLA TYPHIMURIUM, Strain/Indicator: TA98, Metabolic Activation: NONE, Method: STANDARD PLATE
[2] = Test System: AMES SALMONELLA TYPHIMURIUM, Strain/Indicator: TA100, Metabolic Activation: NONE, Method: STANDARD PLATE
[3] = Test System: AMES SALMONELLA TYPHIMURIUM, Strain/Indicator: TA1535, Metabolic Activation: NONE, Method: STANDARD PLATE
[4] = Test System: AMES SALMONELLA TYPHIMURIUM, Strain/Indicator: TA1535, Metabolic Activation: RAT, LIVER, S-9, AROCLOR 1254, Method: STANDARD PLATE
[5] = Test System: AMES SALMONELLA TYPHIMURIUM, Strain/Indicator: TA1537, Metabolic Activation: RAT, LIVER, S-9, AROCLOR 1254, Method: STANDARD PLATE

For `C(=Nc1ccccc1)c1cccc2cccnc12`, the mutagenic call [1] was “inactive; negative”, the mutagenic call (Test System: AMES SALMONELLA TYPHIMURIUM, Strain/Indicator: TA98, Metabolic Activation: RAT, LIVER, S-9, AROCLOR 1254, Method: STANDARD PLATE) was “inactive; negative” and the mutagenic call [2] was “inactive; negative”. For the same compound, the mutagenic call (Test System: AMES SALMONELLA TYPHIMURIUM, Strain/Indicator: TA100, Metabolic Activation: RAT, LIVER, S-9, AROCLOR 1254, Method: STANDARD PLATE) was “active; positive”, the mutagenic call [3] was “inactive; negative” and the mutagenic call [4] was “inactive; negative”. The mutagenic call (Test System: AMES SALMONELLA TYPHIMURIUM, Strain/Indicator: TA1537, Metabolic Activation: NONE, Method: STANDARD PLATE) was “inactive; negative” and the mutagenic call [5] was “inactive; negative”.

In the case of `O=[N+]([O-])c1cc2[nH]c3ccc4ccccc4c3c2c2cccc(O)c12`, the mutagenic call [1] is reported as “active; positive”, the mutagenic call (Test System: AMES SALMONELLA TYPHIMURIUM, Strain/Indicator: TA98, Metabolic Activation: RAT, LIVER, S-9, 3-METHYLCHOLANTHRENE, Method: STANDARD PLATE) is reported as “active; positive” and the mutagenic call [2] is reported as “active; positive”. For the same compound, the mutagenic call (Test System: AMES SALMONELLA TYPHIMURIUM, Strain/Indicator: TA100, Metabolic Activation: RAT, LIVER, S-9, 3-METHYLCHOLANTHRENE, Method: STANDARD PLATE) was “active; positive”.

`Cc1cc(O)c2c(c1)C(=O)c1cc(O)cc(O)c1C2=O` was tested, and the mutagenic call (Test System: AMES SALMONELLA TYPHIMURIUM, Strain/Indicator: TA97, Metabolic Activation: NONE, Method: STANDARD PLATE) was “inactive; negative”, the mutagenic call (Test System: AMES SALMONELLA TYPHIMURIUM, Strain/Indicator: TA97, Metabolic Activation: RAT, LIVER, S-9, AROCLOR 1254, Method: STANDARD PLATE) was “active; positive” and the mutagenic call (Test System: AMES SALMONELLA TYPHIMURIUM, Strain/Indicator: TA97A, Metabolic Activation: NONE, Method: STANDARD PLATE) was “inactive; negative”. The mutagenic call (Test System: AMES SALMONELLA TYPHIMURIUM, Strain/Indicator: TA97A, Metabolic Activation: RAT, LIVER, S-9, AROCLOR 1254, Method: STANDARD PLATE) was “active; positive”, the mutagenic call (Test System: AMES SALMONELLA TYPHIMURIUM, Strain/Indicator: TA98, Metabolic Activation: HAMSTER, LIVER, S-9, AROCLOR 1254 (30%), Method: PREINCUBATION) was “inactive; negative” and the mutagenic call (Test System: AMES SALMONELLA TYPHIMURIUM, Strain/Indicator: TA98, Metabolic Activation: NONE, Method: PREINCUBATION) was “inactive; negative”. For the same compound, the mutagenic call (Test System: AMES SALMONELLA TYPHIMURIUM, Strain/Indicator: TA98, Metabolic Activation: RAT LIVER S-9, AROCLOR 1254 (30%), Method: PREINCUBATION) was “inactive; negative”, the mutagenic call (Test System: AMES SALMONELLA TYPHIMURIUM, Strain/Indicator: TA100, Metabolic Activation: HAMSTER LIVER S-9, AROCLOR 1254 (10% OR 30%), Method: PREINCUBATION) was “active; positive” and the mutagenic call (Test System: AMES SALMONELLA TYPHIMURIUM, Strain/Indicator: TA100, Metabolic Activation: NONE, Method: PREINCUBATION) was “inactive; negative”. The mutagenic call (Test System: AMES SALMONELLA TYPHIMURIUM, Strain/Indicator: TA100, Metabolic Activation: RAT LIVER S-9, AROCLOR 1254 (5% OR 30%), Method: PREINCUBATION) was “active; positive”, the mutagenic call (Test System: AMES SALMONELLA TYPHIMURIUM, Strain/Indicator: TA102, Metabolic Activation: NONE, Method: STANDARD PLATE) was “inactive; negative” and the mutagenic call (Test System: AMES SALMONELLA TYPHIMURIUM, Strain/Indicator: TA102, Metabolic Activation: S-9, Method: STANDARD PLATE) was “active; positive”. For the same compound, the mutagenic call [3] was “inactive; negative”, the mutagenic call [4] was “inactive; negative” and the mutagenic call [5] was “active; positive”. For the same compound, the mutagenic call (Test System: AMES SALMONELLA TYPHIMURIUM, Strain/Indicator: TA1537, Metabolic Activation: RAT, LIVER, S-9, PCB, Method: STANDARD PLATE) was “active; positive”, the mutagenic call (Test System: AMES SALMONELLA TYPHIMURIUM, Strain/Indicator: TA1537, Metabolic Activation: RAT, LIVER, S-9, Method: PREINCUBATION) was “active; positive” and the mutagenic call (Test System: AMES SALMONELLA TYPHIMURIUM, Strain/Indicator: TA1538, Metabolic Activation: NONE, Method: STANDARD PLATE) was “inactive; negative”. For the same compound, the mutagenic call (Test System: AMES SALMONELLA TYPHIMURIUM, Strain/Indicator: TA1538, Metabolic Activation: RAT, LIVER, S-9, AROCLOR 1254, Method: STANDARD PLATE) was “inactive; negative”, the mutagenic call (Test System: AMES SALMONELLA TYPHIMURIUM, Strain/Indicator: TA2638, Metabolic Activation: S-9, Method: STANDARD PLATE) was “active; positive” and the mutagenic call (Test System: CHINESE HAMSTER V-79, Strain/Indicator: V-79 (HGPRT)/6-THIOGUANINE, Metabolic Activation: NONE, Method: SUSPENSION/PLATE) was “inactive; negative”. The mutagenic call (Test System: CHINESE HAMSTER V-79, Strain/Indicator: V-79 (HGPRT)/6-THIOGUANINE, Metabolic Activation: RAT, LIVER, S-9, AROCLOR 1254, Method: SUSPENSION/PLATE) was “inactive; negative”, the mutagenic call (Test System: CHINESE HAMSTER V-79, Strain/Indicator: V-79/8-AZAGUANINE, Metabolic Activation: NONE, Method: STANDARD PLATE) was “active; positive” and the mutagenic call (Test System: E. COLI, Strain/Indicator: WP2 (PKM101), Metabolic Activation: S-9, Method: STANDARD PLATE) was “inactive; negative”. The mutagenic call (Test System: E. COLI, Strain/Indicator: WP2 UVRA (PKM101), Metabolic Activation: S-9, Method: STANDARD PLATE) was “inactive; negative” and the mutagenic call (Test System: UDS RODENT HEPATOCYTES, Strain/Indicator: THY INCORP (NON-S-PHASE), Metabolic Activation: NONE, Method: AUTORADIOGRAPHY) was “active; positive”.
